Structures are written as SMILES.

One assay addresses T1, human CYP11B1 (Homo sapiens, UniProt P15538).
T1 construct: expressed in transfected cells; host or cells: V79 cells (clone V79-hCYP11B1-8CLC7)
T1 sequence (P15538 25-503): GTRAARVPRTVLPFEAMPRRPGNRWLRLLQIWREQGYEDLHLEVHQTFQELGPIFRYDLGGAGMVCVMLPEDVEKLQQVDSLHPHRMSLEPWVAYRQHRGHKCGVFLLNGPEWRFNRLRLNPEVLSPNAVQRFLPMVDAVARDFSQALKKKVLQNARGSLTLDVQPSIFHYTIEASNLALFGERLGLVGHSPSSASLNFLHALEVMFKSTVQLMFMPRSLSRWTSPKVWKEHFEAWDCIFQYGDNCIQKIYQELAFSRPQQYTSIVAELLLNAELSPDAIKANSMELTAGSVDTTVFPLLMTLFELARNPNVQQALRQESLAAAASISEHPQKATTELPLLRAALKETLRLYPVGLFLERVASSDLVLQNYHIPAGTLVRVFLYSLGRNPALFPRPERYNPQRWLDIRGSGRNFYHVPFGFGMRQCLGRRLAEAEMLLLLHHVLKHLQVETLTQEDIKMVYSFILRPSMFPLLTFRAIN
Briefly: V79-Human-CYP11B1 cell assay. It is filed as cell-based. The note with it: V79 cells stably expressing human CYP11B1; 250 nM 11-deoxycortisol substrate; cortisol by HTRF. Here is the method: (§1) Methods for V79-Human-CYP11B2 and V79-Human-CYP11B1 Assays: V79 cell lines stably expressing the either the human CYP11B2 or the human CYP11B1 enzyme were generated using a standard transfection protocol. V79 cells were transfected with plasmids pTriEx3-Hygro-hCyp11B2 or pTriEx3-Hygro-hCyp11B1 using Lipofectamine2000 reagent. […] Single cell clones were generated by […] in DMEM supplemented with 10% FBS and 400 μg/mL hygromycin until single colonies were obtained. […] The reaction was carried out for 3 hours at 37° C., 5% CO2 and was stopped by harvesting the supernatants. […] IC50s for the inhibitor were determined by plotting the amount of product formed against the concentration of inhibitor using sigmoidal dose-response curve (variable slope) fit in GraphPad.
(In general: In TR-FRET formats the signal depends on donor and acceptor labels being close together.)

For another assay, the target named is T2, human CYP11B2 (Homo sapiens, UniProt P19099).
T2 construct: expressed in transfected cells; host or cells: V79 cells (clone V79-hCYP11B2-CLE9)
T2 sequence (P19099 25-503): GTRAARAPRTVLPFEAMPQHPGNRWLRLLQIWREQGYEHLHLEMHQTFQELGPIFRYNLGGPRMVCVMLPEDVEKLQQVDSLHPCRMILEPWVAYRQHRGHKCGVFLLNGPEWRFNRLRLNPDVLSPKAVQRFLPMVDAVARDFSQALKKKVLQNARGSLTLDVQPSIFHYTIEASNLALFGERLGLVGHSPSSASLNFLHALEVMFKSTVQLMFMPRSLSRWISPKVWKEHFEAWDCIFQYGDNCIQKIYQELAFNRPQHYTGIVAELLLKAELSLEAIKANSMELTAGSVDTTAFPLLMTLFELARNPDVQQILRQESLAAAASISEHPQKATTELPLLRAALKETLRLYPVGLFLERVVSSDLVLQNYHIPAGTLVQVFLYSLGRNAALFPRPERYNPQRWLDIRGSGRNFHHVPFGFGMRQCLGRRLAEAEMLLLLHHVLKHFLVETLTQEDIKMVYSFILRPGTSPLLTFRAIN
Briefly: V79-Human-CYP11B2 cell assay. It is filed as cell-based. The conditions noted are these: V79 cells stably expressing human CYP11B2; 125 nM 11-deoxycorticosterone substrate; aldosterone by HTRF. On the procedure:
as §1

With `C[C@](O)(c1cncc(-n2ncc3c(C(F)(F)F)cccc32)c1)C(F)(F)F` [Example 85, (S)-1,1,1-trifluoro-2-(5-(4-(trifluoromethyl)-1H-indazol-1-yl)pyridin-3-yl)propan-2-ol], the values for the IC50 against human CYP11B1 and at human CYP11B2 were 98 nM and 2.2 nM, respectively.

Regarding `Fc1ccc2c(cnn2-c2cncc(C(F)(F)F)c2)c1` [Example 6, 5-fluoro-1-(5-(trifluoromethyl)pyridin-3-yl)-1H-indazole], the half-inhibitory concentration (IC50) on human CYP11B1 worked out at 1910 nM; on human CYP11B2, 83 nM.

`Clc1cccc2c1cnn2-c1cncc(N2CCC2)n1` [Example 90, 1-(6-azetidin-1-ylpyrazin-2-yl)-4-chloro-1H-indazole]: the IC50 on human CYP11B1 amounted to 31.5 nM; against human CYP11B2, 1.6 nM.

As to `CC(C)(O)c1cncc(-n2ncc3cccc(F)c32)c1` [Example 68, 2-(5-(7-fluoro-1H-indazol-1-yl)pyridin-3-yl)propan-2-ol], the IC50 worked out at 36.4 nM against human CYP11B1 and 1.2 nM against human CYP11B2.

For `CC(O)(c1cncc(-n2ncc3c2CCCC3)c1)C(F)(F)F` (centres unmarked) [Example 75], the IC50 against human CYP11B1 was determined as 498 nM; against human CYP11B2 it was 7.7 nM.

In the case of `CC(C)(O)c1cncc(-n2ncc3cc(F)c(F)cc32)c1` [Example 54, 2-(5-(5,6-difluoro-1H-indazol-1-yl)pyridin-3-yl)propan-2-ol], the IC50 was 305 nM against human CYP11B1 and 23 nM against human CYP11B2.

For `CCc1c(F)cncc1-n1ncc2c(F)cccc21` [Example 42, 1-(4-ethyl-5-fluoropyridin-3-yl)-4-fluoro-1H-indazole], the IC50 at human CYP11B1 was 1800 nM; at human CYP11B2, 131 nM.

For the molecule `Cc1nn(-c2cncc(C(F)(F)F)c2)c2cccc(F)c12` [Example 36, 4-fluoro-3-methyl-1-(5-(trifluoromethyl)pyridin-3-yl)-1H-indazole], the values for the IC50 against human CYP11B1 and against human CYP11B2 were 257 nM and 17 nM, respectively.

As for `CN(C)c1cncc(-n2ncc3c(Cl)cccc32)n1` [Example 88, 6-(4-chloro-1H-indazol-1-yl)-N,N-dimethylpyrazin-2-amine], the IC50 was 633 nM on human CYP11B1 and 17.5 nM against human CYP11B2.

For the molecule `Fc1cc2cnn(-c3cncc4ccccc34)c2cc1F` [Example 46, 4-(5,6-difluoro-1H-indazol-1-yl)isoquinoline], the concentration for half-maximal inhibition (IC50) against human CYP11B1 stood at 107 nM; on human CYP11B2 it was 1.9 nM.

The term IC50 denotes the concentration that gives 50% inhibition. Low readings indicate greater potency, high ones weaker potency.
